From US20230248626A1, “Compositions Comprising (Bio)-Alkanediols” (Symrise AG, priority 0001, published 2023)

Tests used:
Aspergillus brasiliensis = experiment: MIC and Kull synergy index of 1,2-/2,3-alkanediol mixtures; type: cell-based; details: single 2,3-alkanediol, read-out: MIC Component B
[1] = Sensory evaluation on the backside of the hand (spreading, fatty/greasy skin feel, absorption), untrained panellists; details: for Absorption/remaining residue with alkanediol: scale 1 to 5
Description: For evaluating the sensory behaviour, liquid lipophilic components specified in the following table were blended with 1,2-heptanediol or 2,3-heptanediol or a mixture of 1,2-heptanediol and 2,3-heptanediol or 1,2-octanediol or 2,3-octanediol or a mixture of 1,2-octanediol and 2,3-octanediol (formulation) in a ratio of 85:15 and assessed by untrained panellists in comparison to the liquid lipophilic component without addition of the specified alkanediols (placebo).
The test procedure was carried as follows: For evaluating the sensory behaviour of 1,2-alkanediols and/or 2,3-alkanediols in combination with different liquid lipophilic components, oil components specified in the following table were blended with a 1,2-alkanediol or a 2,3-alkanediol or a mixture including a 1,2-alkanediol and a 2,3-alkanediol in a ratio as specified in Table 53 and assessed by untrained panellists in comparison to the liquid lipophilic component without addition of the 1,2-alkanediol or 2,3-alkanediol or the mixture including a 1,2-alkanediol and 2,3-alkanediol (placebo).
Test Procedure: • Hands were pre-washed with liquid soap by following a defined procedure; 30 μl of corresponding sample was applied on the backside of each hand (randomized); • After 30 s the spreading behaviour of the respective formulation on skin was evaluated versus the respective oil component without 1,2-heptanediol on a scale from 1 to 5 (1=low spreading; 5=high spreading); • The samples were distributed with the fingertips of middle and forefinger with 2×5 cycles; • After 2 minutes, the fatty/greasy skin feel was evaluated on a scale from 1 to 5 (1=low fatty/greasy skin feel; 5=high fatty/greasy skin feel); • Furthermore the applicants were asked to assess the absorption, i.e. the impression of amount of remaining residue on the skin on a scale from 1 to 5 (1=low absorption; 5=high absorption).

Candida albicans (CA) = experiment: Preservation efficacy test (PET), European Pharmacopoeia 5.1.3; type: cell-based
Method in brief: (§1)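 Preparations challenged with prescribed inoculums per European Pharmacopoeia 5.1.3, counting microorganisms after the prescribed time. Adequate preservation means a significant fall or no increase in counts.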

Escherichia coli (EC) = experiment: as above; type: cell-based
Method in brief: as §1

[2] = system: Staphylococcus aureus (SA); experiment: as above; type: cell-based
Method in brief: as §1

[3] = system: Aspergillus brasiliensis (AB); experiment: as above; type: cell-based
Method in brief: as §1

[4] = system: Pseudomonas aeruginosa (PA); experiment: as above; type: cell-based
Method in brief: as §1

MIC (Aspergillus brasiliensis): 7500 µg/mL | Absorption/remaining residue Delta ([1]; blend with Argan Oil vs without): 1.4 | Absorption/remaining residue with alkanediol ([1]; blend with Argan Oil): 2.4 | Absorption/remaining residue Delta ([1]; blend with Avocado Oil vs without): 1.4 | Absorption/remaining residue with alkanediol ([1]; blend with Avocado Oil): 2.4 | Absorption/remaining residue Delta ([1]; blend with Cacao butter vs without): 0.4 | Absorption/remaining residue with alkanediol ([1]; blend with Cacao butter): 3.2 | Absorption/remaining residue Delta ([1]; blend with Caprylic Capric Triglyceride (neutral oil), rows r50-r56, vs without): 0.3 | Absorption/remaining residue with alkanediol ([1]; blend with Caprylic Capric Triglyceride (neutral oil), rows r50-r56): 3 | Absorption/remaining residue Delta ([1]; blend with Castor Oil vs without): 0.6 | Absorption/remaining residue with alkanediol ([1]; blend with Castor Oil): 3.8 | Absorption/remaining residue Delta ([1]; blend with Cetearyl Nonanoate, rows r199-r201, vs without): 1.0 | Absorption/remaining residue with alkanediol ([1]; blend with Cetearyl Nonanoate, rows r199-r201): 3.8 | Absorption/remaining residue Delta ([1]; blend with Coconut Oil vs without): 1 | Absorption/remaining residue with alkanediol ([1]; blend with Coconut Oil): 2.4 | Absorption/remaining residue Delta ([1]; blend with Grapeseed Oil vs without): 0.8 | Absorption/remaining residue with alkanediol ([1]; blend with Grapeseed Oil): 2.2 | Absorption/remaining residue Delta ([1]; blend with Helianthus Annuus (Sunflower) Seed Oil vs without): 1 | Absorption/remaining residue with alkanediol ([1]; blend with Helianthus Annuus (Sunflower) Seed Oil): 2.6 | Absorption/remaining residue Delta ([1]; blend with Octocrylene (Neo Heliopan 303), vs without): 0.5 | Absorption/remaining residue with alkanediol ([1]; blend with Octocrylene (Neo Heliopan 303)): 3.5 | Absorption/remaining residue Delta ([1]; blend with Olive Oil vs without): 2 | Absorption/remaining residue with alkanediol ([1]; blend with Olive Oil): 2
SMILES: CCCCC(O)C(C)O (stereo not shown) [2,3-heptanediol]
number of microorganisms after 2 days (Candida albicans (CA); 0.1% in shampoo): 110,000 | number of microorganisms after 7 days (Candida albicans (CA); 0.1% in shampoo): 20,000 | number of microorganisms after 14 days (Candida albicans (CA); 0.1% in shampoo): 100 | number of microorganisms after 28 days (Candida albicans (CA); 0.1% in shampoo): 1 | number of microorganisms after 2 days (Candida albicans (CA); 0.2% in o/w emulsion): 1,900,000 | number of microorganisms after 7 days (Candida albicans (CA); 0.2% in o/w emulsion): 2,200,000 | number of microorganisms after 14 days (Candida albicans (CA); 0.2% in o/w emulsion): 2,100,000 | number of microorganisms after 28 days (Candida albicans (CA); 0.2% in o/w emulsion): 370,000 | number of microorganisms after 2 days (Candida albicans (CA); 0.4% in o/w emulsion): 640,000 | number of microorganisms after 7 days (Candida albicans (CA); 0.4% in o/w emulsion): 350,000 | number of microorganisms after 14 days (Candida albicans (CA); 0.4% in o/w emulsion): 130,000 | number of microorganisms after 28 days (Candida albicans (CA); 0.4% in o/w emulsion): 11,000 | number of microorganisms after 2 days (Candida albicans (CA); 0.4% in shampoo): 81 | number of microorganisms after 7 days (Candida albicans (CA); 0.4% in shampoo): 1 | number of microorganisms after 14 days (Candida albicans (CA); 0.4% in shampoo): 1 | number of microorganisms after 28 days (Candida albicans (CA); 0.4% in shampoo): 1 | number of microorganisms after 2 days (Escherichia coli (EC); 0.1% in shampoo): 1,100,000 | number of microorganisms after 7 days (Escherichia coli (EC); 0.1% in shampoo): 1,500,000 | number of microorganisms after 14 days (Escherichia coli (EC); 0.1% in shampoo): 1,600,000 | number of microorganisms after 28 days (Escherichia coli (EC); 0.1% in shampoo): 1,400,000 | number of microorganisms after 2 days (Escherichia coli (EC); 0.2% in o/w emulsion): 170,000 | number of microorganisms after 7 days (Escherichia coli (EC); 0.2% in o/w emulsion): 1,600 | number of microorganisms after 14 days (Escherichia coli (EC); 0.2% in o/w emulsion): 82 | number of microorganisms after 28 days (Escherichia coli (EC); 0.2% in o/w emulsion): 1 | number of microorganisms after 2 days (Escherichia coli (EC); 0.4% in o/w emulsion): 320,000 | number of microorganisms after 7 days (Escherichia coli (EC); 0.4% in o/w emulsion): 2,400 | number of microorganisms after 14 days (Escherichia coli (EC); 0.4% in o/w emulsion): 1 | number of microorganisms after 28 days (Escherichia coli (EC); 0.4% in o/w emulsion): 1 | number of microorganisms after 2 days (Escherichia coli (EC); 0.4% in shampoo): 1,200,000 | number of microorganisms after 7 days (Escherichia coli (EC); 0.4% in shampoo): 100,000 | number of microorganisms after 14 days (Escherichia coli (EC); 0.4% in shampoo): 75,000 | number of microorganisms after 28 days (Escherichia coli (EC); 0.4% in shampoo): 380,000 | number of microorganisms after 2 days ([2]; 0.1% in shampoo): 27,000 | number of microorganisms after 7 days ([2]; 0.1% in shampoo): 490 | number of microorganisms after 14 days ([2]; 0.1% in shampoo): 1 | number of microorganisms after 28 days ([2]; 0.1% in shampoo): 1 | number of microorganisms after 2 days ([2]; 0.2% in o/w emulsion): 1,300,000 | number of microorganisms after 7 days ([2]; 0.2% in o/w emulsion): 790,000 | number of microorganisms after 14 days ([2]; 0.2% in o/w emulsion): 55 | number of microorganisms after 28 days ([2]; 0.2% in o/w emulsion): 1 | number of microorganisms after 2 days ([2]; 0.4% in o/w emulsion): 1,000,000 | number of microorganisms after 7 days ([2]; 0.4% in o/w emulsion): 12,000 | number of microorganisms after 14 days ([2]; 0.4% in o/w emulsion): 1 | number of microorganisms after 28 days ([2]; 0.4% in o/w emulsion): 1 | number of microorganisms after 2 days ([2]; 0.4% in shampoo): 3,500 | number of microorganisms after 7 days ([2]; 0.4% in shampoo): 1 | number of microorganisms after 14 days ([2]; 0.4% in shampoo): 1 | number of microorganisms after 28 days ([2]; 0.4% in shampoo): 1 | number of microorganisms after 2 days ([3]; 0.1% in shampoo): 1,600,000 | number of microorganisms after 7 days ([3]; 0.1% in shampoo): 970,000 | number of microorganisms after 14 days ([3]; 0.1% in shampoo): 110,000 | number of microorganisms after 28 days ([3]; 0.1% in shampoo): 120,000 | number of microorganisms after 2 days ([3]; 0.2% in o/w emulsion): 1,600,000 | number of microorganisms after 7 days ([3]; 0.2% in o/w emulsion): 1,600,000 | number of microorganisms after 14 days ([3]; 0.2% in o/w emulsion): 3,000,000 | number of microorganisms after 28 days ([3]; 0.2% in o/w emulsion): 2,000,000 | number of microorganisms after 2 days ([3]; 0.4% in o/w emulsion): 790,000 | number of microorganisms after 7 days ([3]; 0.4% in o/w emulsion): 930,000 | number of microorganisms after 14 days ([3]; 0.4% in o/w emulsion): 500,000 | number of microorganisms after 28 days ([3]; 0.4% in o/w emulsion): 390,000 | number of microorganisms after 2 days ([3]; 0.4% in shampoo): 2,200,000 | number of microorganisms after 7 days ([3]; 0.4% in shampoo): 350,000 | number of microorganisms after 14 days ([3]; 0.4% in shampoo): 130,000 | number of microorganisms after 28 days ([3]; 0.4% in shampoo): 140,000 | number of microorganisms after 2 days ([4]; 0.1% in shampoo): 230,000 | number of microorganisms after 7 days ([4]; 0.1% in shampoo): 730,000 | number of microorganisms after 14 days ([4]; 0.1% in shampoo): 3,500,000 | number of microorganisms after 28 days ([4]; 0.1% in shampoo): 7,000,000 | number of microorganisms after 2 days ([4]; 0.2% in o/w emulsion): 1 | number of microorganisms after 7 days ([4]; 0.2% in o/w emulsion): 1 | number of microorganisms after 14 days ([4]; 0.2% in o/w emulsion): 1 | number of microorganisms after 28 days ([4]; 0.2% in o/w emulsion): 1 | number of microorganisms after 2 days ([4]; 0.4% in o/w emulsion): 1 | number of microorganisms after 7 days ([4]; 0.4% in o/w emulsion): 1 | number of microorganisms after 14 days ([4]; 0.4% in o/w emulsion): 1 | number of microorganisms after 28 days ([4]; 0.4% in o/w emulsion): 1 | number of microorganisms after 2 days ([4]; 0.4% in shampoo): 2,900 | number of microorganisms after 7 days ([4]; 0.4% in shampoo): 1 | number of microorganisms after 14 days ([4]; 0.4% in shampoo): 1 | number of microorganisms after 28 days ([4]; 0.4% in shampoo): 1
